What is called pKa is the negative logarithm of the acid dissociation constant. A higher pKa goes with a weaker acid or stronger base.

We go through one compound from US9132280B2, “Use of fusarochromanone and its derivatives in the diagnosis and treatment of cancer and other diseases” (University of South Carolina, priority 2008, dated 2015).

Entries after “also recorded” stand apart in the source; their conditions may differ.

One data set relates to B-16 melanoma cells. Put plainly: Cell growth inhibition, MTT assay. Format: cell-based, mouse. The note with it: B-16 melanoma cells compared to normal cardiac fibroblasts. On the procedure: Cells were plated in a 96 well format containing 100 μl per well of appropriate media at a density of 2.5×10^4 cells/ml, and incubated at 37° C. with 5% CO2. After a 24 h attachment period, the cells were treated in sextuplicate with 100 μl per well of varying concentrations (0 to 10 μM) of FC101. Final volume in each well was 200 μl. Cell proliferation was then determined by the MTT assay after 48 hr incubation period^8. Briefly, 20 μl of a 5 mg/ml solution of MTT (dissolved in HBS) was added to each well. After 4.5 hr incubation at 37° C., the media were then removed and the insoluble mitochondrial-converted dye was solubilized in 100 μl of DMSO. The plates were placed on a shaker for 30 min to ensure that all of the dye was in solution and then read on a (Spectra Max plus 384, Molecular Devices) microplate reader at […]. The background absorbency at 640 nM was subtracted from the 570 nM value before calculating the GI50.
Background: Tetrazolium assays rely on reduction of a dye to a coloured formazan, in cell work by metabolically active cells.

The subject of data set [1] is B16 melanoma cells. Briefly: Confocal time-lapse fluorescence imaging of drug uptake (IOD) in B16 melanoma cells. In kind it is cell-based, mouse. Conditions: 400 nM. On the procedure:
(§1) Cells growing in the Matra-Tek dishes were maintained in an environmental chamber (37° C. and 5% CO2 atmosphere) mounted on the stage of a Zeiss inverted fluorescence microscope equipped with a CARV spinning disk confocal attachment. B16 cells were imaged using a Zeiss 63× oil NA=1.4 apochromatic objective, which gave an image field of 7265.15 μm^2. Cardiac Fibroblasts were imaged using a Zeiss 40× oil 1.0 NA apochromatic objective, which gave an image field of 18,006.85 μm^2. The images were captured using a CCD camera (Hamamatsu ORCA-ER) controlled by Kinetic Imaging Image Acquisition Software (AQM Advance-6) software. All images were recorded at a constant exposure (385 ms) using a DAPI (360/460) filter set, which isolates the natural fluorescence of the compound.
(§2) The cells were maintained in 1 ml of tissue culture medium and allowed equilibrate in the environmental chamber, before imaging of the selected group of cells was initiated. […] The rate of entry of the drug into the cells was determined by high-speed image collection (1 sec interval, 60 exposures per min). The equilibrium-concentration uptake of the drug was determined by slow-speed time-lapse imaging (10 sec intervals, 6 exposures per min) collected for a minimum of 30 minutes. In all experiments, images were recorded prior to addition of the drug to provide a negative control of any auto-fluorescence present in the cells. […]

In data set [2] the test system is normal cardiac fibroblasts. Put plainly: Confocal time-lapse fluorescence imaging of drug uptake (IOD) in normal cardiac fibroblasts. The note with it: 400 nM. Format: cell-based, rat. On the procedure:
as §1, §2
FC101 is a naturally fluorescent molecule and its movements, accumulation and distribution within living cells can be followed and analyzed in real-time or by time-lapse imaging. Cellular uptake of the drug was analyzed using the integrated morphometry subroutine of MetaMorph 6.1 (MDS Analytical Technologies). […] The drug fluorescence in the cytoplasm of the cells was thresholded as a region of interest and the integrated optical density (IOD) of the drug fluorescence was measured for all cells in the field at each time point. Values of image brightness, contrast and gamma function were kept constant for all image measurements of drug fluorescence. […]

A short description of data set [3]: Experimental physicochemical properties of FC101 (pKa, structural counts; Table 1).
Data set [4] can be described thus: Experimental Log D, shaken-flask method (n-octanol/phosphate buffer). In kind it is physicochemical. The note with it: pH 7.6. On the procedure: The shaken-flask method with n-octanol/phosphate buffer was used to determine the experimental ionized partition coefficient for FC101^10. Briefly, 50 ml each of n-octanol and 0.1 M phosphate buffer (at appropriate pH) were added to a 125 ml flask and placed on a mechanical shaker at room temperature for 24 hours to ensure saturation of each phase. The phases were then separated by centrifugation (Damon IEC HN-SII) at 2000 rpm for 30 min. After separation, aliquots (1 ml) were taken from each phase and were placed in separate vials. A small sample (45.5 μl) of a stock solution of 10 mM FC101 in water was added to the aqueous phase. […] The n-octanol was separated from the phosphate buffer and the absorbance at 385 nm (Shimadzu UV 1601) was then used to determine the concentration of FC101 in each phase. The partition coefficient was calculated using the following equation: Log10 D=([FC101charged+uncharged]oct[FC101charged+uncharged]buf) Experimental Log P for FC101
The shaken-flask method with n-octanol/phosphate buffer was used to determine the experimental ionized partition coefficient for FC101^10. […] The n-octanol was separated from the phosphate buffer and the absorbance at 385 nm (Shimadzu UV 1601) was then used to determine the concentration of FC101 in each phase. […]

Data set [5] deals with B16 melanoma cells. Put plainly: Phototoxic effect under blue light exposure during time-lapse imaging, transformed cells. In kind it is cell-based, mouse. The note with it: transformed cells loaded with FC101. On the procedure: as §1, §2
Data set [6] is described as follows: Experimental Log P, shaken-flask method (n-octanol/water adjusted to pH 10). Format: physicochemical. On the procedure: The shaken-flask method was also used to determine the experimental non-ionized partition coefficient for FC101. The same procedure used in the experimental determination of Log D for FC101 was used to determine the Log P with the exception that double-distilled water adjusted to pH 10 with 1 mM NaOH was used instead of the phosphate buffer. The log P was calculated using: Log10 P=Log10([FC101uncharged]oct/[FC101uncharged]wat) Imaging of Drug Uptake: […]

The subject of data set [7] is normal cardiac fibroblasts. Put plainly: Phototoxic effect under blue light exposure during time-lapse imaging, normal cells. In kind it is cell-based, rat. On the procedure:
as §1, §2

As to `CC1(C)CC(=O)c2c(ccc(C(=O)CC(N)CO)c2N)O1` (racemic) [FC101, 5-amino-2,2-dimethyl-6-[3′-(R,S)amino-4′-hydroxy-butan-1-one]-2,3-dihydro-4H-1-benzopyran-4-one], the “Inhibition of cell growth, tumorigenic versus normal cells” value with B-16 melanoma cells is recorded as “preferential inhibition of tumorigenic B-16 melanoma cells”. In addition, the “Uptake of FC101 (intracellular fluorescence)” value is recorded as “immediately entered the cells” in the data set with B16 melanoma cells [1] (10 sec after addition); “stable with no decrease in intracellular drug fluorescence” in the data set with B16 melanoma cells [1] (20 min after addition); “No incorporation; also recorded: no uptake of FC101” in data set [2] (10 sec after addition (less than a minute)); “minimal increase in cytoplasmic fluorescence” in data set [2] (4 min after addition); “significant increase in intracellular fluorescence” in data set [2] (20 min after addition). Besides, the “Hydrogen Bond Acceptors” value in data set [3] came to 6. Also, the “Hydrogen Bond Donors” value in data set [3] stood at 5. In addition, the pKa in data set [3] (amino group on C-3 of the side chain) came out at 8.6. Moreover, the “Log10 D7.6” value in data set [4] worked out at 0.38. Besides, the “Cell death (phototoxic effect) on blue light exposure” value with B16 melanoma cells [5] is “undergo cell death”; in data set [7] it was “do not exhibit this effect; also recorded: ineffectiveness”. Further, the “Log10 P” value in data set [6] came to 1.62.
